According to US20220064127A1, “PLATELET AGGREGATION INHIBITOR, PREPARATION AND USES THEREOF” (SHENYANG HINEWY PHARMACEUTICAL TECHNOLOGY CO., LTD., priority 2020, published 2022):

System: ADP-Induced Platelet Aggregation
Experiment: Inhibition of ADP-induced platelet aggregation in rabbit platelet-rich plasma (microplate method)
Type: cell-based
Settings: Oryctolagus cuniculus, Platelet; 30 μM, rabbit PRP, inducer ADP; read-out: Inhibition rate of target compounds on platelet aggregation at 30 μM
Description: Example 62 Investigation on Inhibition of ADP-Induced Platelet Aggregation in Rabbit
A blood sample was collected from ear vein of a healthy male rabbit, added with 3.8% sodium citrate for anticoagulation and then centrifuged at 800 r/min for 10 min to prepare platelet-rich plasma (PRP) and at 3,000 r/min for 10 min to prepare platelet-poor plasma (PPP). The investigation on the plasma should be performed within 0.5-3 h after the preparation.
2. Determination of Platelet Aggregation by Microplate Method
The drugs to be tested were weighed and added with an appropriate amount of DMSO to prepare a series of 10 mM stock solutions, which were respectively diluted to prepare 10× stock solutions with normal saline for further use.
Several wells of a microplate were selected as test wells, which were added with 135 μL of PRP and then respectively added with 15 μL of the 10× stock solutions. A well in which 135 μL of PRP and 15 μL of normal saline were added was used as the vehicle control, and a well in which 135 μL of PPP and 15 μL of normal saline were added was used as the blank control. Duplicate wells were set for each test well. The plate was shaken, incubated at 37° C. for 5 min, and then measured for A0 at 655 nm. Subsequently, the microplate was added with 15 μL of an inducer […] (ADP) working solution (25 μmol/L) in each well, incubated at 37° C. under shaking and measured at 655 nm for A1, where the incubation time was determined according to the time in the pre-experiment when the maximum aggregation appeared. The platelet aggregation rate (AR) and platelet aggregation inhibition rate (AIR) were calculated according to the following formulas:
AR=(1−ARtest sample/ARcontrol)

Row | SMILES | inhibition at 30 µM [%]
1 | CCOC(=O)c1[nH]c(-c2cccc(C#N)c2)nc1C [LY-29, ethyl 2-(3-cyanophenyl)-4-methyl-1H-imidazole-5-carboxylate] | 32.5
2 | CCOC(=O)c1c(C)nc(-c2cccc(C#N)c2)n1OCc1cccc(C#N)c1 [LY-26x, ethyl 1-[(3-cyanobenzyl)oxy]-2-(3-cyanophenyl)-4-methyl-1H-imidazole-5-carboxylate] | 3.21
3 | CCOC(=O)c1c(C)nc(-c2cccc(C#N)c2)n1OCCC(=O)O [LY-26i, 3-{[2-(3-cyanophenyl)-5-(ethoxycarbonyl)-4-methyl-1H-imidazol-1-yl]oxy}propionic acid] | 24.4
4 | CCOC(=O)c1c(C)nc(-c2cccc(C#N)c2)n1OCC(N)=O [LY-26h, ethyl 1-(2-amino-2-oxoethoxy)-2-(3-cyanophenyl)-4-methyl-1H-imidazole-5-carboxylate] | 18.9
5 | CCOC(=O)c1c(C)nc(-c2ccccc2)n1OC [LY-25, ethyl 4-methyl-2-phenyl-1-methoxy-1H-imidazole-5-carboxylate] | 24.1

Same assay, conditions: Oryctolagus cuniculus, Platelet; rabbit PRP, inducer ADP, absorbance 655 nm; read-out: IC50 (Mean ± SE), ADP-induced platelet aggregation

Row | IC50 [µM] | SMILES
6 | 6.74 ± 0.326 | CCOC(=O)c1c(C)nc(-c2cccc(C#N)c2)n1OC(C)C [LY-26c, ethyl 2-(3-cyanophenyl)-1-isopropoxy-4-methyl-1H-imidazole-5-carboxylate]
7 | 17.6 ± 0.952 | CCOC(=O)c1c(C)nc(-c2cccc(C#N)c2)n1O [LY-10, ethyl 2-(3-cyanophenyl)-1-hydroxy-4-methyl-1H-imidazole-5-carboxylate]
8 | 6.35 ± 0.469 | C=CCOn1c(-c2cccc(C#N)c2)nc(C)c1C(=O)O [LY-27d, 4-methyl-2-(3-cyanophenyl)-1-allyloxy-1H-imidazole-5-carboxylic acid]
9 | 19 ± 0.317 | CCOC(=O)c1c(C)nc(-c2ccc(OCc3ccccc3)c(C#N)c2)n1O [LY-7b, ethyl 2-(3-cyano-4-benzyloxy)phenyl-1-hydroxy-4-methyl-1H-imidazole-5-carboxylate]
10 | 8.75 ± 0.159 | CCOC(=O)c1c(C)nc(-c2cccc(C#N)c2)n1OCc1ccc([N+](=O)[O-])cc1 [LY-26v, ethyl 2-(3-cyanophenyl)-4-methyl-1-[(4-nitrobenzyl)oxy]-1H-imidazole-5-carboxylate]
11 | 9.47 ± 0.856 | CCOC(=O)c1c(C)nc(-c2cccc(C#N)c2)n1OCc1ccc(C(=O)OC)cc1 [LY-26u, ethyl 2-(3-cyanophenyl)-1-{[4-(methoxycarbonyl)benzyl]oxy}-4-methyl-1H-imidazole-5-carboxylate]
12 | 3.88 ± 0.269 | Cc1nc(-c2cccc(C#N)c2)n(OCc2ccc(C#N)cc2)c1C(=O)O [LY-27y, 4-methyl-2-(3-cyanophenyl)-1-(4-cyanobenzyl)oxy-1H-imidazole-5-carboxylic acid]
13 | 9.71 ± 0.557 | CCOn1c(-c2cccc(C#N)c2)nc(C)c1C(=O)O [LY-27b, 4-methyl-2-(3-cyanophenyl)-1-ethoxy-1H-imidazole-5-carboxylic acid]
14 | 9.38 ± 0.565 | CCOC(=O)c1c(C)nc(-c2cccc(C#N)c2)n1OCc1ccccc1C#N [LY-26w, ethyl 1-[(2-cyanobenzyl)oxy]-2-(3-cyanophenyl)-4-methyl-1H-imidazole-5-carboxylate]
15 | 22.1 ± 0.703 | CCOC(=O)c1c(C)nc(-c2cccc(C#N)c2)n1C [LY-30a, ethyl 2-(3-cyanophenyl)-1,4-dimethyl-1H-imidazole-5-carboxylate]
16 | 6.83 ± 0.265 | CCOC(=O)c1c(C)nc(-c2cccc(C#N)c2)n1OCc1ccc(Cl)cc1 [LY-26q, ethyl 1-[(4-chlorobenzyl)oxy]-2-(3-cyanophenyl)-4-methyl-1H-imidazole-5-carboxylate]
17 | 15.9 ± 1.2 | COn1c(-c2cccc(C#N)c2)nc(C)c1C(=O)Nc1ccccc1 [LY-28c, 2-(3-cyanophenyl)-1-methoxy-4-methyl-N-phenyl-1H-imidazole-5-carboxamide]
18 | 8.71 ± 0.242 | CCOC(=O)c1c(C)nc(-c2cccc(C#N)c2)n1OCc1ccccc1Cl [LY-26o, ethyl 1-[(2-chlorobenzyl)oxy]-2-(3-cyanophenyl)-4-methyl-1H-imidazole-5-carboxylate]
19 | 18.3 ± 1.03 | CCOC(=O)c1c(C)nc(-c2ccc(O)c(C#N)c2)n1O [LY-8b, ethyl 2-(3-cyano-4-hydroxyphenyl)-1-hydroxy-4-methyl-1H-imidazole-5-carboxylate]
20 | 16.5 ± 1.07 | CCOC(=O)c1c(C)nc(-c2cccc(C#N)c2)n1OCC [LY-26b, ethyl 2-(3-cyanophenyl)-1-ethoxy-4-methyl-1H-imidazole-5-carboxylate]
21 | 19.4 ± 0.355 | CCOC(=O)c1c(C)nc(-c2cccc(C#N)c2)n1OCc1cccc(Cl)c1 [LY-26p, ethyl 1-[(3-chlorobenzyl)oxy]-2-(3-cyanophenyl)-4-methyl-1H-imidazole-5-carboxylate]
22 | 6.24 ± 0.324 | Cc1nc(-c2cccc(C#N)c2)n(OCc2ccccc2)c1C(=O)O [LY-27k, 4-methyl-2-(3-cyanophenyl)-1-benzyloxy-1H-imidazole-5-carboxylic acid]
23 | 6.8 ± 0.152 | CCOC(=O)COn1c(-c2cccc(C#N)c2)nc(C)c1C(=O)OCC [LY-26g, ethyl 2-(3-cyanophenyl)-1-(2-ethoxy-2-oxoethoxy)-4-methyl-1H-imidazole-5-carboxylate]
24 | 6.31 ± 0.399 | CCOC(=O)c1c(C)nc(-c2cccc(C#N)c2)n1OCc1ccc(C)cc1 [LY-26s, ethyl 2-(3-cyanophenyl)-4-methyl-1-[(4-methylbenzyl)oxy]-1H-imidazole-5-carboxylate]
25 | 9.57 ± 0.226 | CCCNC(=O)c1c(C)nc(-c2cccc(C#N)c2)n1OC [LY-28a, 4-methyl-2-(3-cyanophenyl)-1-methoxy-N-propyl-1H-imidazole-5-carboxamide]
26 | 5.856 ± 0.0165 | C=CCOn1c(-c2cccc(C#N)c2)nc(C)c1C(=O)OCC [LY-26d, ethyl 1-(allyloxy)-2-(3-cyanophenyl)-4-methyl-1H-imidazole-5-carboxylate]
27 | 9.13 ± 0.346 | CCOC(=O)c1c(C)nc(-c2cccc(C#N)c2)n1OC [LY-26a, ethyl 2-(3-cyanophenyl)-1-methoxy-4-methyl-1H-imidazole-5-carboxylate]
28 | 11.4 ± 0.213 | CCOC(=O)c1c(C)nc(-c2cccc(C#N)c2)n1OCCCO [LY-26f, ethyl 2-(3-cyanophenyl)-1-(3-hydroxypropoxy)-4-methyl-1H-imidazole-5-carboxylate]
29 | 7.99 ± 0.217 | COn1c(-c2cccc(C#N)c2)nc(C)c1C(=O)O [LY-27a, 4-methyl-2-(3-cyanophenyl)-1-methoxy-1H-imidazole-5-carboxylic acid]
30 | 5.88 ± 0.196 | CCOC(=O)c1c(C)nc(-c2cccc(C#N)c2)n1OCc1ccc(F)cc1 [LY-26n, ethyl 2-(3-cyanophenyl)-1-[(4-fluorobenzyl)oxy]-4-methyl-1H-imidazole-5-carboxylate]
31 | 6.56 ± 0.357 | Cc1ccc(COn2c(-c3cccc(C#N)c3)nc(C)c2C(=O)O)cc1 [LY-27s, 4-methyl-2-(3-cyanophenyl)-1-(4-methylbenzyl)oxy-1H-imidazole-5-carboxylic acid]

Row | SMILES | IC50 [µM]
32 | CCOC(=O)c1c(C)nc(-c2ccc(OCC(C)C)c(C#N)c2)n1OC(C)=O [LY-8a, ethyl 1-acetoxy-2-(3-cyano-4-isobutoxyphenyl)-4-methyl-1H-imidazole-5-carboxylate] | 5.214 ± 0.0152

Same assay, conditions: rabbit PRP, inducer ADP, absorbance 655 nm; read-out: IC50 (Mean ± SE), ADP-induced platelet aggregation

Row | SMILES | IC50 [µM]
33 | CCOC(=O)c1c(C)nc(-c2ccc(OCC(C)C)c(C#N)c2)n1O [LY-7a, ethyl 2-(3-cyano-4-isobutyloxy)phenyl-1-hydroxy-4-methyl-1H-imidazole-5-carboxylate] | 16.8 ± 0.874
